What was measured:
Format in all cases: cell-based
[1] = test system: mouse hippocampal cell line (Ht22); assay: Inhibition of glutamate-induced non-apoptotic cell death (Example B.2); settings: HT-22, Ht22 cells, glutamate-induced cell death, read-out: Ht22/GLU
Excerpt: Inhibition of Glutamate-Induced Non-Apoptotic Cell Death by Compounds of the Present Invention
Glutamate toxicity is conferred on cells from the mouse hippocampal cell line (Ht22) by inhibition of the cysteine/glutamate antiporter, System xc-, leading to impaired cysteine uptake and subsequent GSH depletion. This model is frequently used for mimicking glutathione depletion following oxidative stress in stroke, brain trauma and other neurodegenerative diseases and cellular conditions following ischemia (for example: van Leyen et al, J. Neurochem. 92:824-30 (2005)).
Compounds disclosed herein were evaluated for their ability to promote cell survival upon administration of a lethal dose of glutamate (GLU) to the cell-culture medium.
Briefly, Ht22 cells (ATCC) were propagated DMEM supplemented with 10% FBS/1% Penicillin-Streptomycin, and then seeded onto 96-well plates at a concentration of 2,000 cells/well in 100 μL of MEDIA, simultaneously with glutamate (Sigma Aldrich) to a final concentration of 5 mM, together with increasing concentrations of the compound to be tested (0.5 pM to 100 μM), and the plates incubated at 37° C./5% CO2 for 72 hours. Compound dilutions were prepared from 10 mM stocks dissolved in DMSO and diluted in media. Cells treated with glutamate alone were used as negative control and alpha-tocopherol (Sigma Aldrich) was used as positive control. Compound concentrations were tested in triplicate. After incubation, cell survival was detected and quantified as described in Example B.1.

[2] = test system: Pfa1 cells; assay: Inhibition of non-apoptotic cell death after tamoxifen-induced GPx4 knockout in a recombinant cell line (Example B.4); settings: Mus musculus, read-out: Pfa1/TAM IC50
Excerpt: Inhibition of Non-Apoptotic Cell-Death by Compounds Disclosed Herein Using a Recombinant Cell Line
To combat high intracellular ROS levels, mammalian cells have evolved an intricate network of ROS scavenging in cells, in which the thioredoxin and glutathione (GSH) dependent systems prevail. […] Knockout of GPx4 in neurons causes massive neurodegeneration in cortical, cerebellar and hippocampal neurons underscoring the high relevance of ROS-induced cell death signaling in the brain. Briefly, immortalised fibroblasts from these mice were made to contain tamoxifen-inducible CreERT2, which catalyzes the functional ablation of both copies of GPx4 and resulting in a complete knockout of GPx4, a massive ROS burst, and cell death in cell culture. These cells (Pfa1 cells) were used to characterize compounds of the present invention, whereby tamoxifen (TAM) was given on day 0 along with the compound under test, and 72 hours later cell survival was evaluated using AlamarBlue.

[3] = Cellular toxicity, same assay as Example B.4 without TAM (Example B.5); settings: mouse; Pfa1 cells without TAM; read-out: TC50 (the source's name)
Excerpt: Cellular Toxicity of Compounds of the Invention
An estimate of the toxicity for compounds of the invention was obtained by using the same assay as described in Example B.4, but without the addition of TAM. […] Such TC50 values obtained for certain compounds disclosed herein, together with an approximate therapeutic window (estimated by dividing each TC50 by the corresponding IC50 determined from example B.4) are shown in Table 3.

Structure (SMILES)	IC50 [1]	IC50 [2]	CC50 [3]
CC(CCc1ccccc1)NC1=Nc2ccccc2NC12CCCCC2 (centres unmarked) [C-233]	< 1 µM	< 1 µM	20 to 50 µM
Fc1ccc(CNC2=Nc3ccccc3NC23CCNCC3)c(F)c1 [N-221]	< 0.2 µM	< 0.2 µM	20 to 50 µM
Clc1cccc(CCNC2=Nc3ccccc3NC23CCOCC3)c1 [O/S-79]	< 1 µM	< 1 µM	20 to 50 µM
Clc1cc2c(cc1Cl)NC1(CCSCC1)C(NCc1ccccc1)=N2 [O/S-349]	< 0.5 µM	< 0.2 µM	20 to 50 µM
c1ccc(CCCCNC2=Nc3ccccc3NC23CCNCC3)cc1 [N-225]	< 1 µM	< 0.05 µM	1 to 2 µM
c1ccc(CCCCNC2=Nc3ccccc3NC23CCOCC3)cc1 [O/S-358]	< 2 µM	< 2 µM	10 to 20 µM
c1ccc(CNC2=Nc3ccccc3NC23CCNCC3)cc1 [N-206]	< 0.5 µM	< 0.2 µM	20 to 50 µM
Fc1ccc(CNC2=Nc3ccccc3NC23CCCCCC3)c(F)c1 [C-242]	< 1 µM	< 1 µM	10 to 20 µM
c1ccc(CCNC2=Nc3ccccc3NC23CCOCC3)cc1 [O/S-347]	< 5 µM	< 5 µM	50 to 100 µM
Clc1cc2c(cc1Cl)NC1(CCCNCC1)C(NCc1ccccc1)=N2 (centres unmarked) [N-236]	< 0.05 µM	< 0.1 µM	2 to 5 µM
Clc1cc2c(cc1Cl)NC1(CCCCCCC1)C(NCc1ccccc1)=N2 [C-237]	< 0.5 µM	< 0.5 µM	10 to 20 µM
COc1cccc(CNC2=Nc3ccccc3NC23CCCCCC3)c1 [C-224]	< 1 µM	< 0.5 µM	20 to 50 µM
Clc1ccc(CNC2=Nc3cc(Cl)c(Cl)cc3NC23CCNCC3)cc1 [N-208]	< 0.05 µM	< 0.01 µM	0.5 to 1 µM
CN1CCC2(CC1)Nc1ccccc1N=C2NCc1ccc(Cl)cc1 [N-213]	< 0.2 µM	< 0.1 µM	5 to 10 µM
CC(NC1=Nc2ccccc2NC12CCNCC2)c1ccccc1 (centres unmarked) [N-218]	< 0.5 µM	< 0.5 µM	20 to 50 µM
Fc1ccc(CNC2=Nc3ccccc3NC23CCCCC3)c(F)c1 [C-231]	< 1 µM	< 0.5 µM	20 to 50 µM
CC(C)(C)c1ccc(CNC2=Nc3ccccc3NC23CCOCC3)cc1 [O/S-350]	< 0.5 µM	< 0.5 µM	20 to 50 µM
Cc1cccc(CNC2=Nc3cc(Cl)c(Cl)cc3NC23CCNCC3)c1 [N-224]	< 0.05 µM	< 0.01 µM	1 to 2 µM
Cc1cc2c(cc1C)NC1(CCNCC1)C(NCc1ccc(Cl)cc1)=N2 [N-214]	< 0.05 µM	< 0.01 µM	1 to 2 µM

Structure (SMILES)	IC50 [1]	IC50 [2]	CC50 [3]
Cc1cccc(CNC2=Nc3cc(Cl)c(Cl)cc3NC23CCCCC3)c1 [C-268]	< 0.5 µM	< 0.1 µM	10 to 20 µM
c1ccc(CCNC2=Nc3ccccc3NC23CCNCC3)cc1 [N-226]	< 0.1 µM	< 0.1 µM	10 to 20 µM
Cc1cc(C)cc(CNC2=Nc3ccccc3NC23CCOCC3)c1 [O/S-344]	< 2 µM	< 1 µM	20 to 50 µM
c1ccc(CCCNC2=Nc3ccccc3NC23CCSCC3)cc1 [O/S-356]	< 2 µM	< 2 µM	20 to 50 µM
CN1CCC2(CC1)Nc1cc(F)c(F)cc1N=C2NCc1ccccc1 [N-229]	< 0.1 µM	< 0.1 µM	5 to 10 µM
FC(F)(F)c1cccc(CNC2=Nc3ccccc3NC23CCCCC3)c1 [C-23]	< 0.5 µM	< 0.05 µM	10 to 20 µM
Clc1ccccc1CNC1=Nc2ccccc2NC12CCSCC2 [O/S-167]	< 1 µM	< 0.5 µM	20 to 50 µM
CN1CCC2(CC1)Nc1ccccc1N=C2NCc1cccc(C(F)(F)F)c1 [N-215]	< 0.05 µM	< 0.05 µM	5 to 10 µM
Fc1cccc(CNC2=Nc3ccccc3NC23CCOCC3)c1 [O/S-5]	< 5 µM	< 2 µM	50 to 100 µM
Clc1ccc(CNC2=Nc3ccccc3NC23CCNCC3)cc1Cl [N-211]	< 0.05 µM	< 0.01 µM	1 to 2 µM
Fc1cc2c(cc1F)NC1(CCOCC1)C(NCc1ccccc1)=N2 [O/S-346]	< 1 µM	< 0.5 µM	50 to 100 µM
FC(F)(F)c1cccc(CNC2=Nc3ccccc3NC23CCSCC3)c1 [O/S-189]	< 5 µM	< 5 µM	50 to 100 µM
O=S1(=O)CCC2(CC1)Nc1cc(Cl)c(Cl)cc1N=C2NCc1ccccc1 [O/S-360]	< 2 µM	< 2 µM	–
Fc1cccc(F)c1CNC1=Nc2ccccc2NC12CCSCC2 [O/S-351]	< 1 µM	< 1 µM	50 to 100 µM
COc1cccc(CNC2=Nc3ccccc3NC23CCCCC3)c1 [C-47]	< 1 µM	< 0.5 µM	20 to 50 µM
Cc1cc2c(cc1C)NC1(CCCCCCC1)C(NCc1ccccc1)=N2 [C-241]	< 0.2 µM	< 0.5 µM	5 to 10 µM
Clc1cccc(CCNC2=Nc3ccccc3NC23CCCCC3)c1 [C-79]	< 0.5 µM	< 0.5 µM	2 to 5 µM
Fc1cccc(F)c1CNC1=Nc2ccccc2NC12CCOCC2 [O/S-341]	< 2 µM	< 2 µM	50 to 100 µM
Fc1cccc(CNC2=Nc3ccccc3NC23CCNCC3)c1 [N-5]	< 0.05 µM	< 0.1 µM	5 to 10 µM

Structure (SMILES)	IC50 [1]	IC50 [2]	CC50 [3]
Clc1ccc(CNC2=Nc3ccccc3NC23CCCCC3)c(Cl)c1 [C-230]	< 0.5 µM	< 0.1 µM	20 to 50 µM
c1ccc(CCCNC2=Nc3ccccc3NC23CCNCC3)cc1 [N-228]	< 0.05 µM	< 0.1 µM	2 to 5 µM
Cc1cccc(CNC2=Nc3ccccc3NC23CCCCC3)c1 [C-11]	< 1 µM	< 0.5 µM	10 to 20 µM
CC(C)(C)c1ccc(CNC2=Nc3ccccc3NC23CCCCC3)cc1 [C-269]	< 0.5 µM	< 0.2 µM	5 to 10 µM
Fc1cc(Cl)ccc1CNC1=Nc2ccccc2NC12CCCCC2 [C-61]	< 0.5 µM	< 0.2 µM	20 to 50 µM
CCCCCCCC(=O)N1CCC2(CC1)Nc1ccccc1N=C2NCc1ccccc1 [N-216]	< 0.5 µM	< 0.5 µM	10 to 20 µM
Clc1ccc(CNC2=Nc3ccccc3NC23CCCCCC3)cc1 [C-220]	< 0.5 µM	< 0.2 µM	10 to 20 µM
c1ccc(CCCNC2=Nc3ccccc3NC23CCOCC3)cc1 [O/S-343]	< 5 µM	< 2 µM	20 to 50 µM
Fc1ccc(CNC2=Nc3ccccc3NC23CCOCC3)c(F)c1 [O/S-355]	< 2 µM	< 2 µM	50 to 100 µM
CC(C)(C)c1ccc(CNC2=Nc3ccccc3NC23CCNCC3)cc1 [N-227]	< 0.01 µM	< 0.01 µM	0.5 to 1 µM
Clc1ccc(CNC2=Nc3ccccc3NC23CCCCC3)cc1 [C-3]	< 0.5 µM	< 0.2 µM	20 to 50 µM
CC(CCc1ccccc1)NC1=Nc2ccccc2NC12CCOCC2 (centres unmarked) [O/S-353]	< 2 µM	< 0.5 µM	20 to 50 µM
Clc1ccc(CNC2=Nc3ccccc3NC23CCSCC3)cc1 [O/S-169]	< 1 µM	< 1 µM	20 to 50 µM
Cc1cc(C)cc(CNC2=Nc3ccccc3NC23CCSCC3)c1 [O/S-357]	< 0.5 µM	< 0.5 µM	10 to 20 µM
Clc1ccc(CNC2=Nc3ccccc3NC23CCOCC3)c(Cl)c1 [O/S-354]	< 0.5 µM	< 0.5 µM	20 to 50 µM
CC(NC1=Nc2ccccc2NC12CCCCC2)c1ccccc1 (centres unmarked) [C-244]	< 1 µM	< 1 µM	10 to 20 µM
Cc1cccc(CNC2=Nc3ccccc3NC23CCOCC3)c1 [O/S-11]	< 5 µM	< 2 µM	50 to 100 µM
c1ccc(CCCCNC2=Nc3ccccc3NC23CCCCC3)cc1 [C-232]	< 1 µM	< 2 µM	20 to 50 µM
Clc1cccc(CNC2=Nc3cc(Cl)c(Cl)cc3NC23CCNCC3)c1 [N-115]	< 0.05 µM	< 0.01 µM	0.2 to 0.5 µM
